In PMC7252619 (PLoS ONE, 2020):
Read-outs that look alike come from different tables or passages of the source.

Experiments:
Assay in all cases: Kinase activity test (ReactionBiology), % enzyme activity relative to DMSO
Assay type in all cases: biochemical
[1] = target: T1, NEK2 (Homo sapiens, UniProt P51955); conditions: NEK2; for % Enzyme Activity (relative to DMSO controls), Data 1: replicate Data 1; for % Enzyme Activity (relative to DMSO controls), Data 2: replicate Data 2;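 on all read-outs here: FDA-approved drugs chosen by structure-based repositioning, each screened at 10 or 1 µM for kinase activity, expressed as percent of DMSO controls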
T1 construct: purchased ReactionBiology
T1 sequence (P51955 1-445): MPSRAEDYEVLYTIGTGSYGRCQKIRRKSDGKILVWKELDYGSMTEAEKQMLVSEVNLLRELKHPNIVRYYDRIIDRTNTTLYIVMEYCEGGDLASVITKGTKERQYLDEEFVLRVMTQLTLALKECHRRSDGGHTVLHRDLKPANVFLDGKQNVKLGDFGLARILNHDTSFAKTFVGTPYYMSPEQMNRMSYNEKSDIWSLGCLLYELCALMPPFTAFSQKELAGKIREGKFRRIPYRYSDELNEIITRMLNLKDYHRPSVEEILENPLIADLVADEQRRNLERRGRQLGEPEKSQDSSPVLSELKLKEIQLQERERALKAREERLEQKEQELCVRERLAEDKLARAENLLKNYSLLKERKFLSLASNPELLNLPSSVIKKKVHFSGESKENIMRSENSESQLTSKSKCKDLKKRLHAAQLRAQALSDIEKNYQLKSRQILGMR

[2] = target: T2, DAPK1 (Homo sapiens, UniProt P53355); conditions: DAPK1
T2 construct: purchased ReactionBiology

[3] = target: VEGFR2 (Homo sapiens, UniProt P35968); parameters: purchased ReactionBiology; conditions: VEGFR2; for % Enzyme Activity (relative to DMSO controls), Data 1: replicate Data 1; for % Enzyme Activity (relative to DMSO controls), Data 2: replicate Data 2;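 on all read-outs here: VEGFR2 was one member of a ten-kinase screening panel testing marketed FDA-approved drugs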
[4] = target: T3, CK1d (Homo sapiens, UniProt P48730); conditions: CK1d
T3 construct: purchased ReactionBiology

[5] = 1 uM, Average, read-out: % Enzyme Activity (relative to DMSO controls), Average
[6] = 1 uM, replicate Data 1, read-out: % Enzyme Activity (relative to DMSO controls), Data 1
[7] = 1 uM, replicate Data 2, read-out: % Enzyme Activity (relative to DMSO controls), Data 2
[8] = 10 uM, Average, read-out: % Enzyme Activity (relative to DMSO controls), Average
[9] = 10 uM, replicate Data 1, read-out: % Enzyme Activity (relative to DMSO controls), Data 1
[10] = 10 uM, replicate Data 2, read-out: % Enzyme Activity (relative to DMSO controls), Data 2
[11] = compound 1μM, relative to DMSO controls, read-out: % Enzyme activity at 1μM
[12] = compound 10μM, relative to DMSO controls, read-out: % Enzyme activity at 10μM

Sequence of VEGFR2 (P35968 20-1356): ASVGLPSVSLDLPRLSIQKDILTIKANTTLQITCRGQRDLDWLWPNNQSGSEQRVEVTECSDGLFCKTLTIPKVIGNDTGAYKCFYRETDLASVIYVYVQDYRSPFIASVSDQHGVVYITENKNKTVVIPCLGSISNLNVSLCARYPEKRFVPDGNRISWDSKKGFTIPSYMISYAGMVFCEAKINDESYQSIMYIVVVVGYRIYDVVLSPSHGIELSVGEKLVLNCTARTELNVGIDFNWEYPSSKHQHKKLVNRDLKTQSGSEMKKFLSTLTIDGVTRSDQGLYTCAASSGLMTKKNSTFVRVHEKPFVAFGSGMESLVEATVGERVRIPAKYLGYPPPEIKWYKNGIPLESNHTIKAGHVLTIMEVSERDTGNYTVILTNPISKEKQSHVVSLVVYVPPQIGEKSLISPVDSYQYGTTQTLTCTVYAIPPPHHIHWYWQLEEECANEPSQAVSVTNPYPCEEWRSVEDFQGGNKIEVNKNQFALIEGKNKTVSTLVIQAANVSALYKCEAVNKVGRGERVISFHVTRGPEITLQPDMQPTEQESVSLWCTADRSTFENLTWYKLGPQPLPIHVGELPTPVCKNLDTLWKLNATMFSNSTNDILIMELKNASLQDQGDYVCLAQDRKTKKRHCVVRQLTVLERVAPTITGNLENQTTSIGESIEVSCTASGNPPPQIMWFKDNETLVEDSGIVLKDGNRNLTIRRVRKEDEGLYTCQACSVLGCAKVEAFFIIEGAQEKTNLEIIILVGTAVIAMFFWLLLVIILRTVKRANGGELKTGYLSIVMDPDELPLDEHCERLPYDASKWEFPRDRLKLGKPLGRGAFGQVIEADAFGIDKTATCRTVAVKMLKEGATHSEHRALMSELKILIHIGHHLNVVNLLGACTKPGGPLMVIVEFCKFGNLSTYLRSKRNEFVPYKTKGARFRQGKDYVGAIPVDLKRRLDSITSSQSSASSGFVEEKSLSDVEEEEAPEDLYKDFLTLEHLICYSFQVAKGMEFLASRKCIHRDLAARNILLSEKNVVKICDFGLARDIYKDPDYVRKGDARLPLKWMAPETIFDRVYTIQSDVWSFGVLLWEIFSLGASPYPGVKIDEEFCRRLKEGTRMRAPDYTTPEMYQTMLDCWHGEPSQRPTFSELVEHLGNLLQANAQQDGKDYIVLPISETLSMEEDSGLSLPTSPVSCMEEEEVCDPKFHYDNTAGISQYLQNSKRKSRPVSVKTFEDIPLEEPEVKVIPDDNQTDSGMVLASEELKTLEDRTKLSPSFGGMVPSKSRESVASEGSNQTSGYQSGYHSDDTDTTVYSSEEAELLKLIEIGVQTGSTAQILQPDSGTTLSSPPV
T2 sequence (P53355 whole entry): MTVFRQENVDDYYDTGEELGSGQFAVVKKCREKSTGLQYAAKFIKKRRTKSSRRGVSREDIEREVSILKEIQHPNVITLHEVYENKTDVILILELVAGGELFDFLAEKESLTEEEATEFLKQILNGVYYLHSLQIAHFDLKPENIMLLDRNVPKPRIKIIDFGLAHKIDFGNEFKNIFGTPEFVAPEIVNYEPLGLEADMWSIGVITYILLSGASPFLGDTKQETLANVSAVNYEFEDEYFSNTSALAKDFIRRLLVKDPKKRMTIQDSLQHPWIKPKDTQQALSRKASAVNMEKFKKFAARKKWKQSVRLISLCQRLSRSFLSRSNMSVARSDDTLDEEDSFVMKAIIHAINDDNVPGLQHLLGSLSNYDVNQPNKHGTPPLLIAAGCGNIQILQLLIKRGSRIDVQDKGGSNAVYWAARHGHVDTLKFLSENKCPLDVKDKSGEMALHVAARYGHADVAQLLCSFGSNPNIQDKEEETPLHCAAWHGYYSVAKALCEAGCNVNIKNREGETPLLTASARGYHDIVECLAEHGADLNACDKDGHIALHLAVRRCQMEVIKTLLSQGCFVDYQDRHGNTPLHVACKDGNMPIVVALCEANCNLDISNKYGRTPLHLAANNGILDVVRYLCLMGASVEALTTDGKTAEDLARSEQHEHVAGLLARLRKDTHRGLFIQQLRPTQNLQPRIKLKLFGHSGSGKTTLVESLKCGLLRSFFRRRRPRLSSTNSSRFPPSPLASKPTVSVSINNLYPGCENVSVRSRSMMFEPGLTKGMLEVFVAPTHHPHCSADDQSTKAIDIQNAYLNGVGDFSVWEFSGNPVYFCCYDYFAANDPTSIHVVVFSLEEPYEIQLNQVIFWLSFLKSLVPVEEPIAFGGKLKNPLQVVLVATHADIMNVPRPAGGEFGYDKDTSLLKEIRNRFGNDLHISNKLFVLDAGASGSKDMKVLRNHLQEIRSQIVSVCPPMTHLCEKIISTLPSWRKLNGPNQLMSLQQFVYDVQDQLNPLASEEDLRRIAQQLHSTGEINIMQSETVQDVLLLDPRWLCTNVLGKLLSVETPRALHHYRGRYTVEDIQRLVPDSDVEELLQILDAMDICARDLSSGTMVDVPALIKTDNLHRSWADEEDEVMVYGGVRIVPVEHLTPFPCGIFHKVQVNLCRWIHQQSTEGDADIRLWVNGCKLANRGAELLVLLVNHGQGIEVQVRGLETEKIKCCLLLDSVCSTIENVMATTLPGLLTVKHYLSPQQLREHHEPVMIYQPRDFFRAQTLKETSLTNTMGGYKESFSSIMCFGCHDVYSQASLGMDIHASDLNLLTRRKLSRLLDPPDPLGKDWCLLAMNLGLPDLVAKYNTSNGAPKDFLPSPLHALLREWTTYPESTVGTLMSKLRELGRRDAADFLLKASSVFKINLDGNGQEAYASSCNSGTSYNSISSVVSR
T3 sequence (P48730 whole entry): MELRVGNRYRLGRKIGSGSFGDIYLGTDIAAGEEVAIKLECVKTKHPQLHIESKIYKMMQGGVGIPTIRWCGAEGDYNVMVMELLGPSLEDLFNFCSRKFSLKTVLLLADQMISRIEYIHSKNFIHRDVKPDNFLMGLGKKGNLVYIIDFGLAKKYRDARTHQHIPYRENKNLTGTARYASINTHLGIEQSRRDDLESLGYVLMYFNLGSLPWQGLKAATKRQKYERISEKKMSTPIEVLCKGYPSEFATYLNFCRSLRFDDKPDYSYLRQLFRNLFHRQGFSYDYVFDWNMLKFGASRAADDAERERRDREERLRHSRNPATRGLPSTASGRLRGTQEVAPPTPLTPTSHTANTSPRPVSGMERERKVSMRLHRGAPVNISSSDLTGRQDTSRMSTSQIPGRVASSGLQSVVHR

Compound	% Enzyme Activity (relative to DMSO controls), Average ([2]; 1 uM, Average) [%]	% Enzyme Activity (relative to DMSO controls), Data 1 ([2]; 1 uM, replicate Data 1) [%]	% Enzyme Activity (relative to DMSO controls), Data 2 ([2]; 1 uM, replicate Data 2) [%]	% Enzyme Activity (relative to DMSO controls), Average ([2]; 10 uM, Average) [%]	% Enzyme Activity (relative to DMSO controls), Data 1 ([2]; 10 uM, replicate Data 1) [%]	% Enzyme Activity (relative to DMSO controls), Data 2 ([2]; 10 uM, replicate Data 2) [%]	further results
Cc1nnc(C(C)C)n1C1C[C@H]2CC[C@@H](C1)N2CC[C@H](NC(=O)C1CCC(F)(F)CC1)c1ccccc1 (stereo in doubt) [Maraviroc]							% Enzyme Activity (relative to DMSO controls), Average ([1]; 1 uM): 95.71%; % Enzyme Activity (relative to DMSO controls), Data 1 ([1]; 1 uM): 89.78%; % Enzyme Activity (relative to DMSO controls), Data 2 ([1]; 1 uM): 101.63%; % Enzyme Activity (relative to DMSO controls), Average ([1]; 10 uM): 100.82%; % Enzyme Activity (relative to DMSO controls), Data 1 ([1]; 10 uM): 99.97%; % Enzyme Activity (relative to DMSO controls), Data 2 ([1]; 10 uM): 101.67%
COC(=O)N[C@H](C(=O)N[C@@H](Cc1ccccc1)[C@@H](O)CN(Cc1ccc(-c2ccccn2)cc1)NC(=O)[C@@H](NC(=O)OC)C(C)(C)C)C(C)(C)C [Atazanavir]	98.48	95.12	101.84	74.66	73.05	76.27	
CC(C)CN(C[C@@H](O)[C@H](Cc1ccccc1)NC(=O)O[C@H]1CO[C@H]2OCC[C@H]21)S(=O)(=O)c1ccc(N)cc1 [Darunavir]		101.48			82.12		% Enzyme Activity (relative to DMSO controls), Data 1 ([3]; 1 uM): 105.45%; % Enzyme Activity (relative to DMSO controls), Data 1 ([3]; 10 uM): 98.21%; % Enzyme Activity (relative to DMSO controls), Data 1 ([4]; 1 uM, replicate Data 1): 116.81%
OC(Cn1cncn1)(Cn1cncn1)c1ccc(F)cc1F [Fluconazole]	100.65	103.85	97.44	95.87	97.86	93.87	
Cc1ccc(Nc2c(F)cccc2Cl)c(CC(=O)O)c1 [Lumiracoxib]	98.27			101.02			% Enzyme Activity (relative to DMSO controls), Average ([4]; 10 uM, Average): 99.41%
Cc1ccc(Cl)c(Nc2ccccc2C(=O)O)c1Cl [Meclofenamate]		121.09			115.51		% Enzyme Activity (relative to DMSO controls), Data 1 ([3]; 1 uM): 108.3%; % Enzyme Activity (relative to DMSO controls), Data 1 ([3]; 10 uM): 109.87%; % Enzyme Activity (relative to DMSO controls), Data 1 ([4]; 1 uM, replicate Data 1): 125.84%
Cc1ccnc2c1NC(=O)c1cccnc1N2C1CC1 [Nevirapine]	112.57	101.89	123.25	95.31	95.47	95.14	
N=C(N)c1ccc(OCCCCCOc2ccc(C(=N)N)cc2)cc1 [Pentamidine]						88.42	% Enzyme Activity (relative to DMSO controls), Data 2 ([3]; 10 uM): 93.27%
CC(C)(C)NC(=O)[C@@H]1C[C@@H]2CCCC[C@@H]2CN1C[C@@H](O)[C@H](Cc1ccccc1)NC(=O)[C@H](CC(N)=O)NC(=O)c1ccc2ccccc2n1 [Saquinavir, reference compound]							remaining activity at 1 µM [4, 5]: 109%; remaining activity at 1 µM [4, 6]: 107%; remaining activity at 1 µM [4, 7]: 111%; remaining activity at 10 µM [4, 8]: 121%; remaining activity at 10 µM [4, 9]: 123%; remaining activity at 10 µM [4, 10]: 119%; remaining activity at 1 µM [2, 5]: 87.1%; remaining activity at 1 µM [2, 6]: 88.8%; remaining activity at 1 µM [2, 7]: 85.3%; remaining activity at 10 µM [2, 8]: 27.8%; remaining activity at 10 µM [2, 9]: 27.8%; remaining activity at 10 µM [2, 10]: 27.8%; remaining activity at 1 µM [2, 11]: 87.1%; remaining activity at 10 µM [2, 12]: 27.8%
CN1CC(=O)N2[C@H](c3ccc4c(c3)OCO4)c3[nH]c4ccccc4c3C[C@@H]2C1=O [Tadalafil]							% Enzyme Activity (relative to DMSO controls), Average ([3]; 1 uM): 102.42%; % Enzyme Activity (relative to DMSO controls), Data 1 ([3]; 1 uM): 103.18%; % Enzyme Activity (relative to DMSO controls), Data 2 ([3]; 1 uM): 101.65%; % Enzyme Activity (relative to DMSO controls), Average ([3]; 10 uM): 97.95%; % Enzyme Activity (relative to DMSO controls), Data 1 ([3]; 10 uM): 98.92%; % Enzyme Activity (relative to DMSO controls), Data 2 ([3]; 10 uM): 96.97%; % Enzyme Activity (relative to DMSO controls), Average ([4]; 1 uM, Average): 103.78%; % Enzyme Activity (relative to DMSO controls), Data 1 ([4]; 1 uM, replicate Data 1): 105.89%; % Enzyme Activity (relative to DMSO controls), Data 2 ([4]; 1 uM, replicate Data 2): 101.67%; % Enzyme Activity (relative to DMSO controls), Average ([4]; 10 uM, Average): 108.37%; % Enzyme Activity (relative to DMSO controls), Data 1 ([4]; 10 uM, replicate Data 1): 107.23%; % Enzyme Activity (relative to DMSO controls), Data 2 ([4]; 10 uM, replicate Data 2): 109.5%
CN(C)CCOc1ccc(/C(=C(/CCCl)c2ccccc2)c2ccccc2)cc1 [Toremifene, reference compound]							remaining activity at 1 µM [2, 5]: 90.4%; remaining activity at 1 µM [2, 6]: 70.4%; remaining activity at 1 µM [2, 7]: 110%; remaining activity at 10 µM [2, 8]: 14.8%; remaining activity at 10 µM [2, 9]: 14.9%; remaining activity at 10 µM [2, 10]: 14.6%; remaining activity at 1 µM [2, 11]: 90.4%; remaining activity at 10 µM [2, 12]: 14.8%
Acarbose	112.14	116.25	108.03	96.08	99.05	93.1	

More lines, main results first:

% Enzyme Activity (relative to DMSO controls), Average ([2]; 1 uM, Average) [%]	% Enzyme Activity (relative to DMSO controls), Data 1 ([2]; 1 uM, replicate Data 1) [%]	% Enzyme Activity (relative to DMSO controls), Data 2 ([2]; 1 uM, replicate Data 2) [%]	% Enzyme Activity (relative to DMSO controls), Average ([2]; 10 uM, Average) [%]	% Enzyme Activity (relative to DMSO controls), Data 1 ([2]; 10 uM, replicate Data 1) [%]	% Enzyme Activity (relative to DMSO controls), Data 2 ([2]; 10 uM, replicate Data 2) [%]	Compound	further results
96.25	96.85	95.64	91.80	90.59	93	O=C1C(O)=C([C@H]2CC[C@H](c3ccc(Cl)cc3)CC2)C(=O)c2ccccc21 [Atovaquone]	
101.25	100.97	101.52	92.74	95	90.48	C[C@@H]1O[C@@H]1P(=O)(O)O [Fosfomycin]	
102.77	101.72	103.82	92.90	93.2	92.59	NC[C@H](O)c1ccc(O)c(O)c1 [Norepinephrine]	
102.25	101.97	102.52	96.54	95.41	97.67	C=C[C@H]1CN2CC[C@H]1C[C@@H]2[C@@H](O)c1ccnc2ccc(OC)cc12 [Quinidine]	
109.44	109.64	109.23	98.91	100.03	97.79	Cn1c(=O)c2[nH]cnc2n(C)c1=O [Theophylline]	
100.48	103.12	97.84	91.18	92.93	89.43	CN1[C@@H]2CC[C@H]1C[C@@H](OC(=O)c1c[nH]c3ccccc13)C2 [Tropisetron]	% Enzyme Activity (relative to DMSO controls), Average ([3]; 1 uM): 100.61%; % Enzyme Activity (relative to DMSO controls), Data 1 ([3]; 1 uM): 99.56%; % Enzyme Activity (relative to DMSO controls), Data 2 ([3]; 1 uM): 101.65%; % Enzyme Activity (relative to DMSO controls), Average ([3]; 10 uM): 97.73%; % Enzyme Activity (relative to DMSO controls), Data 1 ([3]; 10 uM): 102.27%; % Enzyme Activity (relative to DMSO controls), Data 2 ([3]; 10 uM): 93.19%
